We go through one cell line from the supplement of paper PMC10307832.

What all share (assay): relative viability (nuclei count vs DMSO), 5 days (fraction); higher = more cells survive
Compound in the test “VX-702 + Tozasertib”: NC(=O)c1ccc(N(C(N)=O)c2c(F)cccc2F)nc1-c1ccc(F)cc1F [VX-702] + Cc1cc(Nc2cc(N3CCN(C)CC3)nc(Sc3ccc(NC(=O)C4CC4)cc3)n2)n[nH]1 [Tozasertib] (partner 0.1 µM)
An outline of the steps:
(§1)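 The day after seeding in 1536-well plates, lung cancer cell lines were treated by pin tool with a single drug, or with a fixed anchor-drug dose together with five library-drug doses (not always all listed) in √10 steps. After 5 days, a combined fix-and-stain solution (final 0.05% Triton X-100, 1% formaldehyde, 1 ug/ml Hoechst) was added. Nuclei counted on 4× images gave relative viability as treated counts over vehicle counts, reported as the median of duplicate plates.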

Compound in the test “Dabrafenib + Tozasertib”: CC(C)(C)c1nc(-c2cccc(NS(=O)(=O)c3c(F)cccc3F)c2F)c(-c2ccnc(N)n2)s1 [Dabrafenib] + Cc1cc(Nc2cc(N3CCN(C)CC3)nc(Sc3ccc(NC(=O)C4CC4)cc3)n2)n[nH]1 [Tozasertib] (partner 0.1 µM)
In outline: as §1

Compound in the test “VX-702 + Foretinib”: NC(=O)c1ccc(N(C(N)=O)c2c(F)cccc2F)nc1-c1ccc(F)cc1F [VX-702] + COc1cc2c(Oc3ccc(NC(=O)C4(C(=O)Nc5ccc(F)cc5)CC4)cc3F)ccnc2cc1OCCCN1CCOCC1 [Foretinib] (partner 0.25 µM)
An outline of the steps: as §1

Compound in the test “Dabrafenib + Olaparib”: CC(C)(C)c1nc(-c2cccc(NS(=O)(=O)c3c(F)cccc3F)c2F)c(-c2ccnc(N)n2)s1 [Dabrafenib] + O=C(c1cc(Cc2n[nH]c(=O)c3ccccc23)ccc1F)N1CCN(C(=O)C2CC2)CC1 [Olaparib] (partner 8 µM)
In outline:
as §1

Compound in the test “VX-702 + OSI-027”: NC(=O)c1ccc(N(C(N)=O)c2c(F)cccc2F)nc1-c1ccc(F)cc1F [VX-702] + COc1cccc2cc(-c3nc([C@H]4CC[C@H](C(=O)O)CC4)n4ncnc(N)c34)[nH]c12 [OSI-027] (partner 0.5 µM)
An outline of the steps:
as §1

SW 900: the relative viability was determined as 0.87 in the test with VX-702 + Tozasertib (first compound 0.02 µM); 0.494 with VX-702 + Tozasertib (first compound 0.2 µM); 0.621 in the test with VX-702 + Tozasertib (first compound 0.6325 µM); 0.636 in the test with VX-702 + Tozasertib (first compound 2 µM); 0.711 with Dabrafenib + Tozasertib (first compound 0.009487 µM); 0.527 in the test with Dabrafenib + Tozasertib (first compound 0.03 µM). The relative viability worked out at 0.632 with Dabrafenib + Tozasertib (first compound 0.3 µM); 0.726 with VX-702 + Foretinib (first compound 0.02 µM); 1.02 in the test with VX-702 + Foretinib (first compound 0.2 µM); 0.9 with VX-702 + Foretinib (first compound 0.6325 µM); 0.958 in the test with VX-702 + Foretinib (first compound 2 µM); 0.93 in the test with Dabrafenib + Olaparib (first compound 0.009487 µM). Moreover, the relative viability in the test with Dabrafenib + Olaparib (first compound 0.09487 µM) worked out at 0.775; with Dabrafenib + Olaparib (first compound 0.3 µM) it was 0.984; with VX-702 + OSI-027 (first compound 0.02 µM) it was 0.565; with VX-702 + OSI-027 (first compound 0.2 µM), 0.676; with VX-702 + OSI-027 (first compound 0.6325 µM), 0.592; in the test with VX-702 + OSI-027 (first compound 2 µM), 0.765.
